Tests used:
PSMA^+ PC-3 PIP tumors [1] = assay: Biodistribution test with mice transplanted with prostate cancer cell lines (gamma counter); format: in vivo, nude mouse; conditions: 5 hours after injection
Method: After 270 minutes of [^68Ga]1e and [^68Ga]1g injection, microPET/CT images were obtained for 30 minutes, and then each organ (blood, muscle, fat, heart, lung, liver, spleen, stomach, intestine, kidney, bone and tumor) was extracted and the radioactivity thereof was measured using a gamma counter.

PSMA^+ PC-3 PIP tumors [2] = assay: MicroPET/CT imaging of mice transplanted with prostate cancer cell lines; format: in vivo, nude mouse
Method: A tumor model was prepared by subcutaneously injecting PSMA^+ PC-3 PIP cells (a human prostate cancer cell line) to the right side of the nude mouse hind leg. Each of the ^68Ga-labeled compounds [^68Ga]1e, [^68Ga]1g, [^68Ga]1h and [^68Ga]1k was intravenously injected with 5.5 to 6.5 MBq (148-175 μCi/200 μL), and PET/CT images were obtained using small animal INVEON PET/CT (Siemens medical solutions, Knoxville, USA) for 60 minutes. After 150 minutes, 270 minutes, and 390 minutes, PET/CT images were also obtained for 30 minutes. The obtained PET/CT image results were quantitatively analyzed using Inveon™ Research Workplace (IRW).
FIGS. 1, 2, 3, and 4 are graphs showing the quantitative analysis results of MicorPET/CT images for [^68Ga]1e, [^68Ga]1g, [^68Ga]1h, and [^68Ga]1k in % injected dose (ID)/g, and summarized in Tables 3, 4, 5, and 6, respectively.

[3] = Measurement of lipophilicity (log P), n-octanol/PBS; format: physicochemical; conditions: mean of 3
Method: Each of the [^68Ga]1 compounds (1˜2 mci) synthesized in Example 14 was transferred into a vial, and the solvent was removed, to which 1 mL of n-octanol and 1 mL of PBS were added, and the lid was well closed, followed by mixing with a vortex for 1 minute. After the layers were separated, 0.1 mL was taken from each layer and the radiation dose was measured. The radiation dose was measured by repeating 3 times, and the mean value was obtained.

PSMA = PSMA (Homo sapiens, UniProt Q04609); conditions: cited from earlier work
Sequence of PSMA (Q04609 whole entry): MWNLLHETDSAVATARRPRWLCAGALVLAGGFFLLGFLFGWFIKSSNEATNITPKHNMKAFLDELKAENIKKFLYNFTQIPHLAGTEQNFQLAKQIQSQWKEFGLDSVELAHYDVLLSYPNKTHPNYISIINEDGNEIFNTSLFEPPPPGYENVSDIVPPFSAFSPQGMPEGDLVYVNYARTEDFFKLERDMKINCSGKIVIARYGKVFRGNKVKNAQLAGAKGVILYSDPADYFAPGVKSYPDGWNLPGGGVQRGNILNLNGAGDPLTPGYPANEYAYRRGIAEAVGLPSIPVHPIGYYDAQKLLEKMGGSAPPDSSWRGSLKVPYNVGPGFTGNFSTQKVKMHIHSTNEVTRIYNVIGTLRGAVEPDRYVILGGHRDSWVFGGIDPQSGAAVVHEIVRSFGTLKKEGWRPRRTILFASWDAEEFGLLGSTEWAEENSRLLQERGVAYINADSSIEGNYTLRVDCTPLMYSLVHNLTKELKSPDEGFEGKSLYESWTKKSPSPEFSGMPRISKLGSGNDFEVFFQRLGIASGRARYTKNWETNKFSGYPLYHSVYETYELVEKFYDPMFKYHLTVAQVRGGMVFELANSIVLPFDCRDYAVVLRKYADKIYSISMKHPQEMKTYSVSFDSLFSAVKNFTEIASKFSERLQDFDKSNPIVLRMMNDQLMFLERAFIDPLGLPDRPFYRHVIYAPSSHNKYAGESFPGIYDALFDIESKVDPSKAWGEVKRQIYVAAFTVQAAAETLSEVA

Compound: Cc1ccc(CCCC(=O)NCCCCC(NC(=O)CN2CCN3CCN4CCN(CC2)CC(=O)[O][68Ga]([O]C(=O)C3)[O]C(=O)C4)C(=O)NCCOCCOCC(=O)N(CCCCC(NC(=O)NC(CCC(=O)O)C(=O)O)C(=O)O)CC(=O)O)cc1 (stereo not shown) [[^68Ga]1g]
- tumor intake rate, times higher than that of [^68Ga]1e (PSMA^+ PC-3 PIP tumors [1]): about 1.4 times
- Radioactivity in mouse organ: Blood (PSMA^+ PC-3 PIP tumors [1]; gamma counter): 0.02 ± 0.03 % ID/g
- Radioactivity in mouse organ: Bone (PSMA^+ PC-3 PIP tumors [1]; gamma counter): 0.01 ± 0.01 % ID/g
- Radioactivity in mouse organ: Fat (PSMA^+ PC-3 PIP tumors [1]; gamma counter): 0.11 ± 0.15 % ID/g
- Radioactivity in mouse organ: Heart (PSMA^+ PC-3 PIP tumors [1]; gamma counter): 0.02 ± 0.01 % ID/g
- Radioactivity in mouse organ: Intestine (PSMA^+ PC-3 PIP tumors [1]; gamma counter): 0.09 ± 0.08 % ID/g
- Radioactivity in mouse organ: Kidney (PSMA^+ PC-3 PIP tumors [1]; gamma counter): 9.15 ± 11.26 % ID/g
- Radioactivity in mouse organ: Liver (PSMA^+ PC-3 PIP tumors [1]; gamma counter): 0.03 ± 0.01 % ID/g
- Radioactivity in mouse organ: Lung (PSMA^+ PC-3 PIP tumors [1]; gamma counter): 0.07 ± 0.07 % ID/g
- Radioactivity in mouse organ: Muscle (PSMA^+ PC-3 PIP tumors [1]; gamma counter): 0.01 ± 0.00 % ID/g
- Radioactivity in mouse organ: Spleen (PSMA^+ PC-3 PIP tumors [1]; gamma counter): 0.20 ± 0.27 % ID/g
- Radioactivity in mouse organ: Stomach (PSMA^+ PC-3 PIP tumors [1]; gamma counter): 0.02 ± 0.02 % ID/g
- intake of mouse organ: Bladder (PSMA^+ PC-3 PIP tumors [2]; 10 min after injection): 2.28 ± 0.11 % ID/g
- intake of mouse organ: Kidney (PSMA^+ PC-3 PIP tumors [2]; 10 min after injection): 16.40 ± 0.10 % ID/g
- intake of mouse organ: Liver (PSMA^+ PC-3 PIP tumors [2]; 10 min after injection): 9.55 ± 2.22 % ID/g
- intake of mouse organ: Muscle (PSMA^+ PC-3 PIP tumors [2]; 10 min after injection): 1.49 ± 1.64 % ID/g
- intake of mouse organ: Tumor (PIP) (PSMA^+ PC-3 PIP tumors [2]; 10 min after injection): 2.18 ± 0.63 % ID/g
- intake of mouse organ: Bladder (PSMA^+ PC-3 PIP tumors [2]; 20 min after injection): 6.98 ± 2.51 % ID/g
- intake of mouse organ: Kidney (PSMA^+ PC-3 PIP tumors [2]; 20 min after injection): 19.80 ± 0.73 % ID/g
- intake of mouse organ: Liver (PSMA^+ PC-3 PIP tumors [2]; 20 min after injection): 7.26 ± 1.06 % ID/g
- intake of mouse organ: Muscle (PSMA^+ PC-3 PIP tumors [2]; 20 min after injection): 1.88 ± 2.00 % ID/g
- intake of mouse organ: Tumor (PIP) (PSMA^+ PC-3 PIP tumors [2]; 20 min after injection): 4.42 ± 1.50 % ID/g
- intake of mouse organ: Bladder (PSMA^+ PC-3 PIP tumors [2]; 30 min after injection): 13.51 ± 5.83 % ID/g
- intake of mouse organ: Kidney (PSMA^+ PC-3 PIP tumors [2]; 30 min after injection): 21.18 ± 2.17 % ID/g
- intake of mouse organ: Liver (PSMA^+ PC-3 PIP tumors [2]; 30 min after injection): 6.10 ± 0.50 % ID/g
- intake of mouse organ: Muscle (PSMA^+ PC-3 PIP tumors [2]; 30 min after injection): 1.69 ± 1.78 % ID/g
- intake of mouse organ: Tumor (PIP) (PSMA^+ PC-3 PIP tumors [2]; 30 min after injection): 5.43 ± 1.94 % ID/g
- intake of mouse organ: Bladder (PSMA^+ PC-3 PIP tumors [2]; 40 min after injection): 18.89 ± 8.84 % ID/g
- intake of mouse organ: Kidney (PSMA^+ PC-3 PIP tumors [2]; 40 min after injection): 22.74 ± 3.48 % ID/g
- intake of mouse organ: Liver (PSMA^+ PC-3 PIP tumors [2]; 40 min after injection): 5.38 ± 0.22 % ID/g
- intake of mouse organ: Muscle (PSMA^+ PC-3 PIP tumors [2]; 40 min after injection): 1.61 ± 1.69 % ID/g
- intake of mouse organ: Tumor (PIP) (PSMA^+ PC-3 PIP tumors [2]; 40 min after injection): 6.43 ± 2.32 % ID/g
- intake of mouse organ: Bladder (PSMA^+ PC-3 PIP tumors [2]; 50 min after injection): 22.76 ± 10.86 % ID/g
- intake of mouse organ: Kidney (PSMA^+ PC-3 PIP tumors [2]; 50 min after injection): 24.20 ± 4.60 % ID/g
- intake of mouse organ: Liver (PSMA^+ PC-3 PIP tumors [2]; 50 min after injection): 4.75 ± 0.07 % ID/g
- intake of mouse organ: Muscle (PSMA^+ PC-3 PIP tumors [2]; 50 min after injection): 1.54 ± 1.62 % ID/g
- intake of mouse organ: Tumor (PIP) (PSMA^+ PC-3 PIP tumors [2]; 50 min after injection): 7.33 ± 2.76 % ID/g
- intake of mouse organ: Bladder (PSMA^+ PC-3 PIP tumors [2]; 60 min after injection): 24.74 ± 11.23 % ID/g
- intake of mouse organ: Kidney (PSMA^+ PC-3 PIP tumors [2]; 60 min after injection): 25.78 ± 4.72 % ID/g
- intake of mouse organ: Liver (PSMA^+ PC-3 PIP tumors [2]; 60 min after injection): 4.41 ± 0.03 % ID/g
- intake of mouse organ: Muscle (PSMA^+ PC-3 PIP tumors [2]; 60 min after injection): 1.32 ± 1.33 % ID/g
- intake of mouse organ: Tumor (PIP) (PSMA^+ PC-3 PIP tumors [2]; 60 min after injection): 8.29 ± 2.99 % ID/g
- intake of mouse organ: Bladder (PSMA^+ PC-3 PIP tumors [2]; 150 min after injection): 42.3 ± 41.58 % ID/g
- intake of mouse organ: Kidney (PSMA^+ PC-3 PIP tumors [2]; 150 min after injection): 15.75 ± 11.53 % ID/g
- intake of mouse organ: Liver (PSMA^+ PC-3 PIP tumors [2]; 150 min after injection): 0.45 ± 0.11 % ID/g
- intake of mouse organ: Muscle (PSMA^+ PC-3 PIP tumors [2]; 150 min after injection): 0.21 ± 0.03 % ID/g
- intake of mouse organ: Tumor (PIP) (PSMA^+ PC-3 PIP tumors [2]; 150 min after injection): 11.4 ± 5.23 % ID/g
- intake of mouse organ: Bladder (PSMA^+ PC-3 PIP tumors [2]; 270 min after injection): 12.05 ± 2.76 % ID/g
- intake of mouse organ: Kidney (PSMA^+ PC-3 PIP tumors [2]; 270 min after injection): 12.45 ± 9.69 % ID/g
- intake of mouse organ: Liver (PSMA^+ PC-3 PIP tumors [2]; 270 min after injection): 0.22 ± 0.01 % ID/g
- intake of mouse organ: Muscle (PSMA^+ PC-3 PIP tumors [2]; 270 min after injection): 0.06 ± 0.02 % ID/g
- intake of mouse organ: Tumor (PIP) (PSMA^+ PC-3 PIP tumors [2]; 270 min after injection): 13.00±4.95 % ID/g
- tumor intake increase compared to [^68Ga]1e (PSMA^+ PC-3 PIP tumors [2]; 270 minutes): about 3 times
- excretion, in words (PSMA^+ PC-3 PIP tumors [2]; MicroPET/CT): rapidly excreted out of the body
- residence time in the blood, in words (PSMA^+ PC-3 PIP tumors [2]; MicroPET/CT): residence time in the blood was increased
- tumor intake over time, in words (PSMA^+ PC-3 PIP tumors [2]; MicroPET/CT): tumor intake was increased over time
- logP [3]: −2.42

Compound: O=C(O)CC[C@H](NC(=O)N[C@@H](CCCCNC(=O)Nc1ccc([125I])cc1)C(=O)O)C(=O)O [[^125I]30]
- Kd (PSMA): 0.13 nM

From patent publication US11931431B2, “PSMA-targeted radiopharmaceutical for diagnosing and treating prostate cancer” (FUTURECHEM CO., LTD, priority 2018, dated 2024)
